Reference: patent US10189842B2 (Agency for Science, Technology and Research, priority 2013, dated 2019)

Key:
[1] = test system: mammalian PORCN; experiment: PORCN-null HT1080 cells transfected with mammalian PORCN, WNT3A, STF reporter; type: cell-based; settings: luciferase, FIG. 1
Description: PORCN-null HT1080 cells were transfected with mammalian or Xenopus PORCN expression plasmids, along with WNT3A, STF reporter and mCherry as transfection control. 6 hours after transfection, cells were treated with the compounds or DMSO as indicated, and the following day assayed for luciferase. Xenopus PORCN was resistant to the inhibitory effects of compounds.

[2] = test system: MMTV-Wnt1 tumor; experiment: MMTV-Wnt1 mouse model; type: in vivo; settings: treated mice, FIG. 2 and FIG. 3
Description: 8-10 weeks old Female BALBc mice were anesthetised with 150 mg/kg Ketamine+75 mg/kg Xylazine. Under aseptic conditions, skin near the 4th mammary fat pad was incised. Mammary fat pad was tweaked with forceps and tumor fragment ˜2 mm^3 was implanted. The incision was closed using a tissue adhesive. Animals were randomised into groups of eight and treated daily with the test compounds for 14 days. Tumors were measured in two dimensions using calipers, and volume was calculated using the formula: Tumor Volume (mm^3)=[…]. Maximum tumor volume limit was 2000 mm^3.

[3] = test system: HEK293-STF3A cells; experiment: STF3A assay (luciferase reporter); type: cell-based, Human; settings: Homo sapiens, 24 h, 1 day of treatment
How it was run: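 HEK293 cells carrying the STF reporter and expressing Wnt3A, seeded 2×10^4 per well overnight, then treated 1 day with compound at final 50 μM to 1.5 nM. Luciferase activity read by luminescence after Steady-Glo reagent, 10 min at room temperature.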

SMILES | inhibition of the activity of mammalian porcupine [1] | tumor growth [2] | IC50 [3] [nM]
Cc1cncc(-c2ccc(NC(=O)CCC(=O)N3CCCn4nc(C)cc43)cn2)c1 [Compound 110, N-(5′-methyl-2,3′-bipyridin-5-yl)-4-(2-methyl-6,7-dihydropyrazolo[1,5-a]pyrimidin-4(5H)-yl)-4-oxobutanamide] | inhibit the activity of mammalian porcupine | decreased tumor growth in all the treated mice | < 100
Cc1cncc(-c2ccc(NC(=O)C(C)CC(=O)N3CCCn4nc(C)cc43)nc2)n1 (stereo not shown) [Compound 151, 2-methyl-4-(2-methyl-6,7-dihydropyrazolo[1,5-a]pyrimidin-4(5H)-yl)-N-(5-(6-methylpyrazin-2-yl)pyridin-2-yl)-4-oxobutanamide] | – | – | < 100
Cc1cncc(-c2ccc(NC(=O)C(C)CC(=O)N3CCCn4nc(C)cc43)nc2)c1 (stereo not shown) [Compound 152, 2-methyl-4-(2-methyl-6,7-dihydropyrazolo[1,5-a]pyrimidin-4(5H)-yl)-N-(5′-methyl-[3,3′-bipyridin]-6-yl)-4-oxobutanamide] | – | – | < 100
Cc1cc2n(n1)CCCN2C(=O)CCC(=O)Nc1ccc(-c2cncnc2)cn1 [Compound 153, 4-(2-methyl-6,7-dihydropyrazolo[1,5-a]pyrimidin-4(5H)-yl)-4-oxo-N-(5-(pyrimidin-5-yl)pyridin-2-yl)butanamide] | – | – | < 100
Cc1cc2n(n1)CCCN2C(=O)CCC(=O)Nc1ccc(-c2cncnc2)nc1 [Compound 154, 4-(2-methyl-6,7-dihydropyrazolo[1,5-a]pyrimidin-4(5H)-yl)-4-oxo-N-(6-(pyrimidin-5-yl)pyridin-3-yl)butanamide] | – | – | < 1000
Cc1cc2n(n1)CCCN2C(=O)CC(C)C(=O)Nc1ccc(-c2cccnc2)nn1 (stereo not shown) [Compound 155] | – | – | < 100
Cc1cc2n(n1)CCCN2C(=O)CCC(=O)Nc1cnc(-c2ccccc2)c(F)c1 [Compound 156, N-(5-fluoro-6-phenylpyridin-3-yl)-4-(2-methyl-6,7-dihydropyrazolo[1,5-a]pyrimidin-4(5H)-yl)-4-oxobutanamide] | – | – | < 100
Cc1cncc(-c2ccc(NC(=O)CCC(=O)N3CC(C)Cn4nc(C)cc43)nc2)n1 (stereo not shown) [Compound 157, 4-(2,6-dimethyl-6,7-dihydropyrazolo[1,5-a]pyrimidin-4(5H)-yl)-N-(5-(6-methylpyrazin-2-yl)pyridin-2-yl)-4-oxobutanamide] | – | – | < 100
Cc1cncc(-c2ncc(NC(=O)CCC(=O)N3CCCn4nc(C)cc43)cc2F)c1 [Compound 158, N-(3-fluoro-5′-methyl-[2,3′-bipyridin]-5-yl)-4-(2-methyl-6,7-dihydropyrazolo[1,5-a]pyrimidin-4(5H)-yl)-4-oxobutanamide] | – | – | < 100
Cc1cc2n(n1)CCCN2C(=O)CC(C)C(=O)Nc1cc(-c2cccc(Cl)c2)no1 (stereo not shown) [Compound 159, N-(3-(3-chlorophenyl)isoxazol-5-yl)-2-methyl-4-(2-methyl-6,7-dihydropyrazolo[1,5-a]pyrimidin-4(5H)-yl)-4-oxobutanamide] | – | – | < 5000
Cc1cc2n(n1)CC(C)CN2C(=O)CCC(=O)Nc1ccc(-c2cncc(F)c2)nc1 (stereo not shown) [Compound 162, 4-(2,6-dimethyl-6,7-dihydropyrazolo[1,5-a]pyrimidin-4(5H)-yl)-N-(5′-fluoro-[2,3′-bipyridin]-5-yl)-4-oxobutanamide] | – | – | < 100
Cc1cc2n(n1)CC(C)CN2C(=O)CCC(=O)Nc1ccc(-c2cncc(F)c2)cn1 (stereo not shown) [Compound 163, 4-(2,6-dimethyl-6,7-dihydropyrazolo[1,5-a]pyrimidin-4(5H)-yl)-N-(5′-fluoro-[3,3′-bipyridin]-6-yl)-4-oxobutanamide] | – | – | < 100
Cc1cc2n(n1)CC(C)CN2C(=O)CCC(=O)Nc1ccc(-c2ccc(F)cn2)cn1 (stereo not shown) [Compound 164, 4-(2,6-dimethyl-6,7-dihydropyrazolo[1,5-a]pyrimidin-4(5H)-yl)-N-(5-fluoro-[2,3′-bipyridin]-6′-yl)-4-oxobutanamide] | – | – | < 1000
Cc1cc2n(n1)CC(C)CN2C(=O)CCC(=O)Nc1cc(F)c(-c2cccnc2)cn1 (stereo not shown) [Compound 165, 4-(2,6-dimethyl-6,7-dihydropyrazolo[1,5-a]pyrimidin-4(5H)-yl)-N-(4-fluoro-[3,3′-bipyridin]-6-yl)-4-oxobutanamide] | – | – | < 100
Cc1cc2n(n1)CCCN2C(=O)CCC(=O)Nc1ccc(-c2cnccn2)nc1 [Compound 166, 4-(2-methyl-6,7-dihydropyrazolo[1,5-a]pyrimidin-4(5H)-yl)-4-oxo-N-(6-(pyrazin-2-yl)pyridin-3-yl)butanamide] | – | – | < 1000
Cc1cc2n(n1)CC(C)CN2C(=O)CCC(=O)Nc1ccc(-c2cncc(F)c2)nn1 (stereo not shown) [Compound 167, 4-(2,6-dimethyl-6,7-dihydropyrazolo[1,5-a]pyrimidin-4(5H)-yl)-N-(6-(5-fluoropyridin-3-yl)pyridazin-3-yl)-4-oxobutanamide] | – | – | < 100
Cc1cncc(-c2ncc(NC(=O)CCC(=O)N3CCCn4nc(C)cc43)cc2C)c1 [Compound 168, N-(3,5′-dimethyl-[2,3′-bipyridin]-5-yl)-4-(2-methyl-6,7-dihydropyrazolo[1,5-a]pyrimidin-4(5H)-yl)-4-oxobutanamide] | – | – | < 1000
Cc1cc2n(n1)C[C@@H](C)CN2C(=O)CCC(=O)Nc1ccc(-c2cccnc2)cn1 [Compound 169, N-(3,3′-bipyridin-6-yl)-4-(2,6-dimethyl-6,7-dihydropyrazolo[1,5-a]pyrimidin-4(5H)-yl)-4-oxobutanamide] | – | – | < 100
Cc1cc2n(n1)C[C@H](C)CN2C(=O)CCC(=O)Nc1ccc(-c2cccnc2)cn1 [Compound 170, N-(3,3′-bipyridin-6-yl)-4-(2,6-dimethyl-6,7-dihydropyrazolo[1,5-a]pyrimidin-4(5H)-yl)-4-oxobutanamide] | – | – | < 100
Cc1cc2n(n1)CC(C)CN2C(=O)CCC(=O)Nc1ccc(-c2ccccn2)cn1 (stereo not shown) [Compound 171, N-([2,3′-bipyridin]-6′-yl)-4-(2,6-dimethyl-6,7-dihydropyrazolo[1,5-a]pyrimidin-4(5H)-yl)-4-oxobutanamide] | – | – | < 100
